What was measured:
HuH7 xenografts = experiment: HSV1716 in combination with sorafenib in vivo in subcutaneous flank HuH7 xenografts; set-up: species or system nude mice
Method: Female 6-8 week old athymic nude mice (Charles River Labs, UK) were maintained under specific pathogen free conditions. Actively growing HuH7 cells were harvested and, after re-suspension in PBS, 1×10^6 cells per mouse were injected subcutaneously. Treatments were started when tumours reached 5 mm in diameter. Mice were inspected daily, when tumour diameters reached 15 mm they were sacrificed and the tumour xenograft removed for viral extraction. The viral load in tumours and various organs was assessed by plaque forming assay on Vero cells. Extracted intact tumours/organs were frozen immediately at −70° C. and, after thawing, the tissues were mechanically homogenized in a Retsch homogenizer in 1 ml PBS prior to titration.
Sorafenib for IP injections was obtained from Selleckchem UK, (S1040), and was reported as 100% pure. The dose was 10 mg/kg equivalent to 10 μg/g or 250 μg/mouse (25 g). The 0.1 ml intraperitoneal dose therefore required 250 μg/0.1 ml or 2.5 mg/ml. 50 mg sorafenib was dissolved in 0.5 ml DMSO and this was added to 19.5 ml PBS with 5% Tween80 and 5% PEG400 (both v/v). This is equivalent to c4 mM sorafenib. HSV1716gCluc which expresses luciferase from the HSV-1 gC promoter. The stock virus solution was 8×10^7 pfu/ml and 0.125 ml virus stock were added to 10 ml compound sodium lactate with 10% glycerol to give the injection solution at a titre of 1×10^6 pfu/ml. 0.1 ml injected it/mouse and is equivalent to 1×10^5 pfu.
In vivo combination with sorafenib and HSV1716 was analysed using the HuH7 subcutaneous xenograft HCC model in nude mice. Groups were—no treatment (n=10), sorafenib (n=6), HSV1716 (n=10), HSV1716 sorafenib (n=12). HSV1716gC-luc at 1×10^5 pfu was given on days 1, 3 and 9 and sorafenib at 10 mg/kg (Liu et al Cancer Res 2006; 66:11851-11858), was administered IP (Wang et al., Cancer Biol & Therapy 2011; 12:3, 229-238) every 2nd day from day 2 on 9 occasions. Virus was monitored by IVIS and tumour growth (FIG. 37) and survival (FIG. 38) were recorded.

HCC = settings: monotherapy of HCC; cited from earlier work

## CNC(=O)c1cc(Oc2ccc(NC(=O)Nc3ccc(Cl)c(C(F)(F)F)c3)cc2)ccn1 [sorafenib, 4-[4-[[4-chloro-3-(trifluoromethyl)phenyl]carbamoylamino]phenoxy]-N-methyl-pyridine-2-carboxamide]
HuH7 xenografts; HuH7 xenografts (FIG. 37)
  xenograft growth: inhibited
HuH7 xenografts; HuH7 xenografts (FIG. 38)
  mouse survival: survived longer than controls
HuH7 xenografts; HuH7 xenografts (FIG. 38), virus 1×10^5 pfu days 1, 3, 9, sorafenib 10 mg/kg IP
  period in which no mice died: about 4 days
HCC
  prolongation of median survival and the time to progression: ~3 months
  reduction of the risk of death during year 1: 31%
